In PMC4501119, “Cholestenoic acid, an endogenous cholesterol metabolite, is a potent γ-secretase modulator” (Molecular Neurodegeneration, 2015):
Entries after “also recorded” stand apart in the source; their conditions may differ.

Tests used:
γ-secretase = biological target: T1, γ-secretase (Homo sapiens, UniProt P49768); assay: In vitro γ-secretase assay with recombinant C100Flag and CHO S-1 membrane, Aβ and AICD spectra by MALDI-TOF; format: biochemical; conditions: 20 μM
T1 construct: The membrane derived from the H4 neuroglioma cells overexpressing APP695wt were prepared by carbonate extraction; endogenous in cells; host or cells: H4 neuroglioma cells overexpressing APP695wt (membranes, carbonate extraction)
Method: Broken cell assays were performed with slight modifications from the previous studies. The membrane derived from the H4 neuroglioma cells overexpressing APP695wt were prepared by carbonate extraction and incubated at 37 °C for 2 h with CA at various concentrations. Aβ levels were quantified by sandwich ELISAs. For Aβ and AICD spectra, the recombinant C100Flag proteins were overexpressed and purified from Escherichia coli BL21 using a HiTrap Q-column (GE Life Science, Little Chalfont, U.K.). The membrane containing γ-secretase was isolated from the CHO S-1 cell line using sodium carbonate (100 mM, pH 11.0). For the in vitro γ-secretase assay, C100Flag recombinant protein at 25 μM was incubated with the membrane (100 μg/mL) in the presence of CA (20 μM) and DMSO in 150 mM sodium citrate buffer (pH 6.8) containing complete protease inhibitor (Roche, Indianapolis, IN) for 2 h at 37 °C.
Conditioned media from the CHO-2B7 cells and the samples prepared from in vitro γ-secretase studies were used to analyze Aβ and AICD profiles using matrix-assisted laser desorption/ionization time of flight (MALDI-TOF) mass spectrometry analysis. The secreted Aβ peptides were analyzed as previously described with the following modifications. […] Samples were analyzed using a Bruker Microflex LRF-MALDI-TOF mass spectrometer.

[1] = tested on: primary mouse motor neuron; parameters: method as in PMID 25271621; conditions: cited from earlier work
[2] = tested on: brain mAβ42, mAβ38 and total mAβ; assay: Brain Aβ levels after intraperitoneal injection in wild type mice; format: in vivo, mouse (C57BL/6 or CF-1)
Method: 25(R)-CA powder was initially dissolved in DMSO (<4.5 % in the final mixture) and then combined with polyethylene glycol (15)-hydroxystearate (Solutol), ethanol, and water at a ratio of (15:10:75). One molar equivalent of sodium hydroxide was added to the mixture. We performed CA intraperitoneal (IP) injections to wild-type mice (C57BL/6 or CF-1). The mice were injected with 25(R)-CA on the right side of the abdomen. The injections have been performed with various time points (30 min, 1 h, 2 h, and 3 h) and with multiple doses (30 mg per kg (mg/kg), 60 mg/kg, 75 mg/kg and 100 mg/kg). The number of each cohort is 6–8. We used 30 mg/kg of CA for the time-course experiments, and for the dose–response experiments the end-point was set at 30 min. The brains and serum are harvested and frozen for brain Aβ extraction.
The mouse brains were harvested at the age of 3 months. The brains were weighed and recorded. The Diethylamine/Sodium Chloride (DEA/NaCl) extraction buffer (0.4 % DEA) was added to each sample and homogenized using a sonicator. The samples were transferred to a poly-carbonate centrifuge tube and spun down at 50,000xg for 30 min at 4 °C. The supernatant was loaded on the vacuum manifold with the appropriate number of HLB Oasis columns. The samples were loaded on the conditioned column, filtered, and eluted using prepared elution buffer (90 % Methanol, 2 % NH4OH). The eluates are concentrated using the Thermo-Savant SpeedVac concentrator for a minimum of 2 h at 55 °C with radiant heat. The concentrated samples are reconstituted in a blocking buffer (0.67 % Bovine serum albumin (BSA)) at the appropriate volume.
Monoclonal antibodies to Aβ were generated by the Mayo Clinic Immunology Core facilities (Jacksonville, FL, USA). […] Total Aβ level was determined by capture with Ab5 and detected with horseradish peroxidase (HRP)-conjugated 4G8 (a monoclonal antibody against Aβ17-24; Covance, Waltham, MA, USA) with the other Aβ peptides detected with HRP-conjugated Ab5. […] Following these steps, the Aβ is monomeric, as determined by size-exclusion chromatography.

[3] = parameters: method as in PMID 10428977; conditions: in humans; cited from earlier work

CC(CCC[C@@H](C)C(=O)O)[C@H]1CCC2C3CC=C4C[C@@H](O)CC[C@]4(C)C3CC[C@@]21C (stereo partly drawn) [Cmpd 2a, 25(R)-cholestenoic acid]
ε-site utilizations (AICD49-99 and AICD50-99) (γ-secretase; vs DMSO control): did not affect | Aβ spectra (MALDI-TOF) (γ-secretase; vs DMSO treated control): decrease Aβ42 peak and increase Aβ38 peak | toxicity to primary mouse motor neuron in cultures [1]: toxic | brain Aβ levels ([2]; 30 mg/kg IP, brains harvested after 30 min, 1, 2 and 3 h): no changes | brain mAβ42, mAβ38 and total mAβ ([2]; 30, 60, 75, 100 mg/kg IP, vs vehicle-injected control, listed as CA): No significant effects; also recorded: did not show acute effects; also recorded: did not affect | half-life (T1/2) [3]: 1.5 h
